Molecular target: SidJ∆N99-CaM (Legionella pneumophila, UniProt Q5ZTK6)
Sequence (Q5ZTK6 whole entry, looked up): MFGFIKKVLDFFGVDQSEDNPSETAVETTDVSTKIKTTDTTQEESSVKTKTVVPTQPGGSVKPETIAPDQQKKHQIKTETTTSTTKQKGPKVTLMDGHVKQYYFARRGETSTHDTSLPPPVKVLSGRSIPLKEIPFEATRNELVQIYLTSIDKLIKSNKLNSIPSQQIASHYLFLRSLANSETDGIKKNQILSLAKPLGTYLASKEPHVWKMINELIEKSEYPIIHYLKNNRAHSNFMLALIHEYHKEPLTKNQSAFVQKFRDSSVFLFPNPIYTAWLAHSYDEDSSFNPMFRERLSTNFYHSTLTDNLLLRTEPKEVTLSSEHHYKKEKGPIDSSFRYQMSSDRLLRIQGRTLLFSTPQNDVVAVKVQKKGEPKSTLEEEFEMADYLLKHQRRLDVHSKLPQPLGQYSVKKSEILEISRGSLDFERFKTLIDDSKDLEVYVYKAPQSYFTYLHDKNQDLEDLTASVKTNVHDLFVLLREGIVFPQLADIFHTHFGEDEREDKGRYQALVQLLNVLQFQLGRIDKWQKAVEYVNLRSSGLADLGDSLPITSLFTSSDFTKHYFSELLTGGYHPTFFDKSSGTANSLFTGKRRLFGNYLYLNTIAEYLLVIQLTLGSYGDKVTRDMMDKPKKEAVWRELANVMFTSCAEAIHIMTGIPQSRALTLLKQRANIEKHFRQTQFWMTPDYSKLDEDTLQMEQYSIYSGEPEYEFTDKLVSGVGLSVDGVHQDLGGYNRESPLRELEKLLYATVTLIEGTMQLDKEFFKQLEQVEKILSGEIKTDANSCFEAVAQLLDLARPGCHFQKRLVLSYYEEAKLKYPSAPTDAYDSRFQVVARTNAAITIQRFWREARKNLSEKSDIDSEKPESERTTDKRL

## Nc1ncnc2c1ncn2[C@@H]1O[C@H](COP(=O)(O)O)[C@@H](O)[C@H]1O [AMP]
  X-ray crystal structure, 3.11 Å: We observed an AMP moiety bound in a pocket formed in the CD

From publication PMC6855250 (Nature, 2019)
